For this data set the following is noted: for aqueous solubility: pH 6.8.

In brackets after ≈: the same amount, converted by molar mass. Bounds are passed on as bounds.

Broadly, the aqueous solubility is how much of the substance goes into solution per volume. Read a low aqueous solubility as a poorly soluble substance.

As for `CN(CCC1CCCCC1)C(=O)c1ccon1`, the MDR1-MDCK efflux ratio is 0.597; the intrinsic clearance, human liver microsomes worked out at 2.42 L/h/kg; the intrinsic clearance, rat liver microsomes worked out at 58.3 L/h/kg; the aqueous solubility was found to be 0.0699 mg/mL (≈ 296 µM).

With `O=C(NN1CCOCC1)c1ccc(Cl)c(Cl)c1`, the MDR1-MDCK efflux ratio is 0.691; the intrinsic clearance, human liver microsomes was ≤ 0.284 L/h/kg; the intrinsic clearance, rat liver microsomes is ≤ 0.64 L/h/kg.

Consider `O=C(NC1CCCCC1)C1CCN(c2ccncc2Cl)CC1`, for which the MDR1-MDCK efflux ratio was found to be 0.838; the intrinsic clearance, human liver microsomes was determined as 1.34 L/h/kg; the intrinsic clearance, rat liver microsomes came out at 15.4 L/h/kg; the aqueous solubility is 0.022 mg/mL (≈ 68.4 µM).

`CCN(CC)CCCNc1c2c(nc3ccccc13)CCC2` yielded an aqueous solubility of 0.0255 mg/mL (≈ 85.6 µM).

Consider `CO[C@H]1CC[C@H](C(=O)NC[C@H]2CC[C@H](c3nnc(-c4nccc5ccccc45)o3)CC2)CC1`, for which the MDR1-MDCK efflux ratio was found to be 8.64; the intrinsic clearance, human liver microsomes came out at 6.16 L/h/kg; the intrinsic clearance, rat liver microsomes was 22.7 L/h/kg; the aqueous solubility stood at 0.0212 mg/mL (≈ 47.3 µM).

On to `O=C(O)c1cc(Cl)cc2cccnc12`, for which the intrinsic clearance, human liver microsomes was ≤ 0.284 L/h/kg; the intrinsic clearance, rat liver microsomes is ≤ 0.64 L/h/kg; the aqueous solubility came to 0.0269 mg/mL (≈ 129 µM).

For `CCCNC(=O)c1c(C)nn(-c2ccccc2)c1C`, the MDR1-MDCK efflux ratio was 0.668; the intrinsic clearance, human liver microsomes is 0.783 L/h/kg; the intrinsic clearance, rat liver microsomes was 124 L/h/kg; the aqueous solubility came out at 0.0307 mg/mL (≈ 119 µM).

`CCn1c(=O)c2c(nc3n2CCN3c2cc(C)cc(C)c2)n(C)c1=O` had an aqueous solubility of 0.0005 mg/mL (≈ 1.47 µM).

`CN(CC1(CO)CCC1)C(=O)CCN1CCCCC1=O`: the MDR1-MDCK efflux ratio amounted to 23.2; the intrinsic clearance, human liver microsomes is ≤ 0.284 L/h/kg; the intrinsic clearance, rat liver microsomes turned out to be 2.76 L/h/kg.

For the compound `CN1CCN(S(=O)(=O)c2ccc(C(F)(F)F)nc2)C(C)(C)C1`, the MDR1-MDCK efflux ratio is 0.642; the intrinsic clearance, human liver microsomes worked out at 2.53 L/h/kg; the intrinsic clearance, rat liver microsomes was determined as 39.7 L/h/kg.

Turning to `O=S(=O)(c1cn[nH]c1)N1CCCC(c2cccc(-c3cccc(Cl)c3)n2)C1` (configuration not stated), the MDR1-MDCK efflux ratio is 3; the intrinsic clearance, human liver microsomes is 3.16 L/h/kg; the intrinsic clearance, rat liver microsomes stood at 23.6 L/h/kg; the aqueous solubility came out at 0.00145 mg/mL (≈ 3.6 µM).

Turning to `CC(=O)Nc1ccnn1C1CCN(Cc2ccccc2C#Cc2ccccc2)CC1`, the MDR1-MDCK efflux ratio worked out at 26.5; the intrinsic clearance, human liver microsomes worked out at 4.95 L/h/kg; the intrinsic clearance, rat liver microsomes was determined as 30.4 L/h/kg; the aqueous solubility was found to be 0.0258 mg/mL (≈ 64.8 µM).

Turning to `CCCc1nnc2sc(-c3cc(C(C)C)nn3C)nn12`, the intrinsic clearance, human liver microsomes is 1.88 L/h/kg; the intrinsic clearance, rat liver microsomes stood at 35.6 L/h/kg; the aqueous solubility amounted to 0.0179 mg/mL (≈ 61.5 µM).

On to `CCc1csc(NC(=O)c2ccc3c(c2)nc(C)n3C)n1`, for which the intrinsic clearance, human liver microsomes was 2.03 L/h/kg; the intrinsic clearance, rat liver microsomes turned out to be 6.46 L/h/kg; the aqueous solubility was 0.0398 mg/mL (≈ 132 µM).

With `Cc1nc(-c2ccccc2)c(C(=O)Nc2ccc(Cl)cc2)s1`, the MDR1-MDCK efflux ratio is 0.438 and the aqueous solubility amounted to 0.00035 mg/mL (≈ 1.06 µM).

For `C[C@@H]1CN(C(=O)CC(c2ccccc2)c2ccccc2)C[C@H](C)O1`, the MDR1-MDCK efflux ratio worked out at 1.31; the fraction unbound, human plasma was found to be 0.154; the fraction unbound, rat plasma was 0.0523; the intrinsic clearance, human liver microsomes was found to be 2.19 L/h/kg. The intrinsic clearance, rat liver microsomes was 114 L/h/kg and the aqueous solubility is 0.0523 mg/mL (≈ 162 µM).

`COC(=O)Nc1ccc(Oc2nc3ccccc3o2)cc1`: the MDR1-MDCK efflux ratio was 0.543; the intrinsic clearance, human liver microsomes was ≤ 0.284 L/h/kg; the intrinsic clearance, rat liver microsomes stood at 1.75 L/h/kg; the aqueous solubility was determined as 0.0222 mg/mL (≈ 78.1 µM).

In turn, `CC1(C)CN(C(=O)c2cscn2)CCS1(=O)=O` displayed an aqueous solubility of 0.0399 mg/mL (≈ 145 µM).

As to `CC(C)(C)CCCNC(=O)N1CCN(Cc2ccon2)CC1`, the MDR1-MDCK efflux ratio was 1.5; the intrinsic clearance, human liver microsomes came out at 1.03 L/h/kg; the intrinsic clearance, rat liver microsomes was 37.4 L/h/kg.

Consider `Cc1cc(-n2nc(C)cc2N)nc(C)n1`, for which the intrinsic clearance, human liver microsomes came to 3.54 L/h/kg and the intrinsic clearance, rat liver microsomes amounted to 7.49 L/h/kg.

`OCCCCCn1cc(-c2ccccc2-c2ccco2)nn1`: the MDR1-MDCK efflux ratio is 1.08; the intrinsic clearance, human liver microsomes worked out at 2.04 L/h/kg; the intrinsic clearance, rat liver microsomes was found to be 14.1 L/h/kg; the aqueous solubility was found to be 0.0111 mg/mL (≈ 37.3 µM).

Regarding `O=C(Nc1cccc(-c2cnco2)c1)C1(c2cccc(F)c2)CCOCC1`, the MDR1-MDCK efflux ratio is 2.37; the intrinsic clearance, human liver microsomes is 3.95 L/h/kg; the intrinsic clearance, rat liver microsomes was found to be 15.4 L/h/kg; the aqueous solubility amounted to 0.0423 mg/mL (≈ 115 µM).

On to `CC(=O)Nc1cccc(OC(=O)N2CCOCC2)c1`, for which the MDR1-MDCK efflux ratio was 2.62; the intrinsic clearance, human liver microsomes is 0.452 L/h/kg; the intrinsic clearance, rat liver microsomes was ≤ 0.64 L/h/kg; the aqueous solubility was determined as 0.0567 mg/mL (≈ 215 µM).

As for `Cc1ccc(OC[C@@H](O)[C@H](C)NC(C)C)c2c1CCC2`, the MDR1-MDCK efflux ratio was found to be 1.38; the intrinsic clearance, human liver microsomes was 7.43 L/h/kg; the intrinsic clearance, rat liver microsomes was found to be 188 L/h/kg.

With `COCCc1nsc(Oc2ccc(C)cc2Br)n1`, the MDR1-MDCK efflux ratio was determined as 0.578; the intrinsic clearance, human liver microsomes amounted to 8.88 L/h/kg; the intrinsic clearance, rat liver microsomes is 276 L/h/kg.

Consider `CN(CC(=O)Nc1cccc(S(=O)(=O)N2CCCC2)c1)C1CCCCC1`, for which the MDR1-MDCK efflux ratio was found to be 2.29; the intrinsic clearance, human liver microsomes is 36.1 L/h/kg; the intrinsic clearance, rat liver microsomes came out at 179 L/h/kg.

With `CN(C)C(=O)C1(Cc2ccccc2-c2ccccc2)CCN(C(=O)c2cnn(C)c2)CC1`, the MDR1-MDCK efflux ratio was 25.1; the fraction unbound, human plasma turned out to be 0.11; the fraction unbound, rat plasma came out at 0.14; the intrinsic clearance, human liver microsomes worked out at 27.8 L/h/kg. Also, the intrinsic clearance, rat liver microsomes turned out to be 75.1 L/h/kg.

Regarding `CNC(=O)CN1CCCN(C(=O)c2c(C)nn(-c3ccccc3)c2Cl)CC1`, the MDR1-MDCK efflux ratio came to 82.1; the intrinsic clearance, human liver microsomes is ≤ 0.284 L/h/kg; the intrinsic clearance, rat liver microsomes is 5.26 L/h/kg; the aqueous solubility came to 0.0499 mg/mL (≈ 128 µM).

In turn, `CCCCN(C)C(=O)c1cn(-c2ccc(C)c(C)c2)nn1` came in with an intrinsic clearance, human liver microsomes of 7.6 L/h/kg; an intrinsic clearance, rat liver microsomes of 31.8 L/h/kg; an aqueous solubility of 0.00881 mg/mL (≈ 30.8 µM).

The compound `Cc1cccc(C)c1OCC(=O)N(C)[C@@H]1CC[C@@H](N2CCOCC2)[C@@H]1O` showed an intrinsic clearance, human liver microsomes of 0.386 L/h/kg and an intrinsic clearance, rat liver microsomes of 6.25 L/h/kg.

`COc1ccc(-c2cc(C(C)(C)C)nc(-c3ncccn3)n2)cc1`: the MDR1-MDCK efflux ratio is 1.22; the intrinsic clearance, human liver microsomes was 1.3 L/h/kg; the intrinsic clearance, rat liver microsomes is 4.53 L/h/kg.

Take `Cc1ccc(NC(=O)[C@H]2COc3ccccc3O2)nc1`: the intrinsic clearance, human liver microsomes turned out to be 11.2 L/h/kg; the intrinsic clearance, rat liver microsomes amounted to 79.3 L/h/kg; the aqueous solubility came to 0.0314 mg/mL (≈ 116 µM).

For the compound `O=C(NCc1cccnc1)c1sccc1-c1ccccc1`, the MDR1-MDCK efflux ratio is 1.1; the intrinsic clearance, human liver microsomes was 2.71 L/h/kg; the intrinsic clearance, rat liver microsomes came out at 52 L/h/kg; the aqueous solubility was found to be 0.0656 mg/mL (≈ 223 µM).

Take `COc1cc(Br)c2c(=O)[nH]c(C)nc2c1`: the MDR1-MDCK efflux ratio is 0.691; the intrinsic clearance, human liver microsomes came to 0.833 L/h/kg; the intrinsic clearance, rat liver microsomes was found to be 8.89 L/h/kg.

In the case of `Clc1ccccc1C(c1ccccc1)(c1ccccc1)n1ccnc1`, the aqueous solubility came out at 0.00373 mg/mL (≈ 10.8 µM).

As to `CC(C)(C(=O)c1ccccc1)/[N+]([O-])=C/c1ccc(F)cc1`, the MDR1-MDCK efflux ratio was determined as 0.68; the intrinsic clearance, human liver microsomes was 0.458 L/h/kg; the intrinsic clearance, rat liver microsomes came out at 3.68 L/h/kg.

As to `Nc1ccc2[nH]c(CCc3ccccc3)nc2c1`, the MDR1-MDCK efflux ratio was determined as 1.27; the intrinsic clearance, human liver microsomes was ≤ 0.284 L/h/kg; the intrinsic clearance, rat liver microsomes came out at 1.73 L/h/kg; the aqueous solubility turned out to be 0.0363 mg/mL (≈ 153 µM).

In the case of `Cc1ccc(-n2nc(C(C)(C)C)cc2NC(=O)Nc2ccc(OCCN3CCOCC3)c3ccccc23)cc1`, the MDR1-MDCK efflux ratio is 6.55; the intrinsic clearance, human liver microsomes was determined as 22.4 L/h/kg; the intrinsic clearance, rat liver microsomes is 42.2 L/h/kg; the aqueous solubility came to 0.0166 mg/mL (≈ 31.6 µM).

For `CNc1nc(C)cc(C(=O)Nc2ccc3[nH]ncc3c2)n1`, the MDR1-MDCK efflux ratio came to 0.659; the fraction unbound, human plasma was determined as 0.312; the intrinsic clearance, human liver microsomes was 1.28 L/h/kg.

`CCNC(=O)c1ccnc(-c2ccc(F)c(C)c2)c1` displayed an intrinsic clearance, human liver microsomes of 7.36 L/h/kg; an intrinsic clearance, rat liver microsomes of 64.3 L/h/kg; an aqueous solubility of 0.0284 mg/mL (≈ 110 µM).

On to `COCCOc1ccc(N2CCN(CCn3ncc4c3nc(N)n3nc(-c5ccco5)nc43)CC2)cc1`, for which the aqueous solubility came to 0.0009 mg/mL (≈ 1.79 µM).

With `Cc1cccc(-n2c(S)nnc2CNc2ccc(F)cc2)c1`, the MDR1-MDCK efflux ratio was 2.44; the intrinsic clearance, human liver microsomes was 1.03 L/h/kg; the intrinsic clearance, rat liver microsomes was 11.3 L/h/kg; the aqueous solubility was determined as 0.0502 mg/mL (≈ 160 µM).

As to `COC(C)(C)CCNC(=O)CC1CC(C)(C)NC(C)(C)C1`, the MDR1-MDCK efflux ratio worked out at 12.9; the intrinsic clearance, human liver microsomes was ≤ 0.284 L/h/kg; the intrinsic clearance, rat liver microsomes came to 2.46 L/h/kg.

Consider `CC1Cc2ccccc2N1C(=O)CN1CCC(n2c(=O)[nH]c3ccccc32)CC1` (configuration not stated), for which the MDR1-MDCK efflux ratio was found to be 29; the intrinsic clearance, human liver microsomes is 3.68 L/h/kg; the intrinsic clearance, rat liver microsomes is 61.9 L/h/kg; the aqueous solubility worked out at 0.0548 mg/mL (≈ 140 µM).

As to `CCOC(=O)CNC(=O)c1ccc(O)cc1O`, the MDR1-MDCK efflux ratio is 0.704; the intrinsic clearance, human liver microsomes worked out at 2.06 L/h/kg; the intrinsic clearance, rat liver microsomes was found to be 6.82 L/h/kg; the aqueous solubility amounted to 0.0362 mg/mL (≈ 151 µM).

In the case of `COCC1CCN(c2noc(-c3cccs3)n2)CC1`, the MDR1-MDCK efflux ratio turned out to be 0.541; the intrinsic clearance, human liver microsomes was 2.38 L/h/kg; the intrinsic clearance, rat liver microsomes is 19.5 L/h/kg; the aqueous solubility turned out to be 0.0129 mg/mL (≈ 46.1 µM).

As for `COC(=O)N1CCCN(C(=O)C(=O)Nc2cccc(C(C)C)c2)CC1`, the MDR1-MDCK efflux ratio turned out to be 1.07; the intrinsic clearance, human liver microsomes came to 3.97 L/h/kg; the intrinsic clearance, rat liver microsomes was determined as 73 L/h/kg; the aqueous solubility came to 0.0584 mg/mL (≈ 168 µM).

Source of the values: the Biogen ADME set (Fang et al. 2023).
